This note sets out measurements from PMC3447335, “Evaluation of Pseudopteroxazole and Pseudopterosin Derivatives against Mycobacterium tuberculosis and Other Pathogens” (Marine Drugs, 2012).

Each structure is given as a SMILES string. In brackets after ≈: the same amount, converted by molar mass. Bounds are passed on as bounds.

Common to all, as to assay: microbe, parasite or virus in culture
Common to all, as to type: cell-based

Test [1] relates to M. tuberculosis H37Rv isogenic strain resistant to streptomycin (SMr). The note with it: Mycobacterium tuberculosis, read-out: MABA MIC SMr. (In general: Alamar Blue is a resazurin reagent that responds to reducing activity.)
Test [2] has as its system M. tuberculosis H37Rv isogenic strain resistant to rifampin (RMPr). The note with it: Mycobacterium tuberculosis, read-out: MABA MIC RMPr.
Test [3] has as its system M. tuberculosis H37Rv isogenic strain resistant to cycloserine (CSr). The note with it: Mycobacterium tuberculosis, read-out: MABA MIC CSr.
Test [4] concerns M. tuberculosis H37Rv isogenic strain resistant to kanamycin (KMr). The note with it: Mycobacterium tuberculosis, read-out: MABA MIC KMr.
In test [5] the test system is M. tuberculosis H37Rv isogenic strain resistant to moxifloxacin (MOXr). The note with it: Mycobacterium tuberculosis, read-out: MABA MIC MOXr.
The subject of test [6] is M. tuberculosis H37Rv isogenic strain resistant to isoniazid (INHr). The note with it: Mycobacterium tuberculosis, read-out: MABA MIC INHr.

Regarding `CC(C)=C[C@@H]1C[C@H](C)[C@H]2CC[C@H](C)c3c2c1c(C)c1ncoc31` [Compound 1, pseudopteroxazole], the MIC in test [1] is 14 µg/mL (≈ 45.2 µM); in test [2] it was 8 µg/mL (≈ 25.9 µM); in test [3], 14 µg/mL (≈ 45.2 µM); in test [4] it was 16 µg/mL (≈ 51.7 µM); in test [5] it was 8 µg/mL (≈ 25.9 µM); in test [6] it was 8 µg/mL (≈ 25.9 µM).
As for `NNC(=O)c1ccncc1` [Isoniazid], the MIC in test [1] was 0.13 µg/mL (≈ 0.948 µM); in test [2], 0.12 µg/mL (≈ 0.875 µM); in test [3], 0.12 µg/mL (≈ 0.875 µM); in test [4], 0.13 µg/mL (≈ 0.948 µM); in test [5], 0.03 µg/mL (≈ 0.219 µM); in test [6] it was > 1.1 µg/mL.
As for `CO[C@H]1/C=C/O[C@@]2(C)Oc3c(C)c(O)c4c(O)c(c(/C=N/N5CCN(C)CC5)c(O)c4c3C2=O)NC(=O)/C(C)=C\C=C\[C@H](C)[C@H](O)[C@@H](C)[C@@H](O)[C@@H](C)[C@H](OC(C)=O)[C@@H]1C` [Rifampin, reference compound], the MIC in test [1] is 0.08 µg/mL (≈ 0.0972 µM); in test [2], > 3.3 µg/mL; in test [3] it was 0.01 µg/mL (≈ 0.0122 µM); in test [4] it was 0.02 µg/mL (≈ 0.0243 µM); in test [5], 0.02 µg/mL (≈ 0.0243 µM); in test [6] it was 0.02 µg/mL (≈ 0.0243 µM).
